Test results as given in the NIST ThermoML archive (doi:10.1016/j.fluid.2018.09.026).
Values joined by “and” are separate entries in the source; they are usually repeats but may differ in a detail not shown here. Equal values may be shown once. ± gives the expanded uncertainty stated by the source.

Settings: Liquid; for mass density: Vibrating tube method; for viscosity: Vibrating wire viscometry

OCCOCCOCCO [triethylene glycol]
Settings	mass density [kg/m3]	viscosity
283.15 K, 100 kPa	1130.8 ± 4.5	–
283.15 K, 660 kPa	1131 ± 4.5	–
283.15 K, 1150 kPa	1131.2 ± 4.5	–
283.15 K, 1570 kPa	1131.4 ± 4.5	–
283.15 K, 2090 kPa	1131.6 ± 4.5	–
283.15 K, 3090 kPa	1132 ± 4.5	–
283.15 K, 5060 kPa	1132.9 ± 4.5	–
283.15 K, 6940 kPa	1133.6 ± 4.5	–
283.15 K, 10020 kPa	1134.9 ± 4.6	–
283.15 K, 14850 kPa	1136.9 ± 4.6	–
283.15 K, 19830 kPa	1138.9 ± 4.6	–
283.15 K, 24700 kPa	1140.8 ± 4.6	–
283.15 K, 29600 kPa	1142.7 ± 4.6	–
283.15 K, 34510 kPa	1144.6 ± 4.6	–
283.15 K, 39360 kPa	1146.4 ± 4.6	–
283.15 K, 44290 kPa	1148.2 ± 4.6	–
283.15 K, 49180 kPa	1150 ± 4.6	–
283.15 K, 54110 kPa	1151.7 ± 4.6	–
283.15 K, 58970 kPa	1153.4 ± 4.7	–
283.15 K, 63860 kPa	1155.1 ± 4.7	–
283.15 K, 68790 kPa	1156.8 ± 4.7	–
293.15 K, 100 kPa	1122.9 ± 4.5	–
293.15 K, 640 kPa	1123.1 ± 4.5	–
293.15 K, 1090 kPa	1123.4 ± 4.5	–
293.15 K, 1600 kPa	1123.6 ± 4.5	–
293.15 K, 2140 kPa	1123.8 ± 4.5	–
293.15 K, 3080 kPa	1124.2 ± 4.5	–
293.15 K, 5030 kPa	1125.1 ± 4.5	–
293.15 K, 7010 kPa	1125.9 ± 4.5	–
293.15 K, 9950 kPa	1127.2 ± 4.5	–
293.15 K, 14850 kPa	1129.3 ± 4.5	–
293.15 K, 19770 kPa	1131.3 ± 4.5	–
293.15 K, 24660 kPa	1133.3 ± 4.6	–
293.15 K, 29510 kPa	1135.2 ± 4.6	–
293.15 K, 34610 kPa	1137.2 ± 4.6	–
293.15 K, 39370 kPa	1139.1 ± 4.6	–
293.15 K, 44320 kPa	1141 ± 4.6	–
293.15 K, 49130 kPa	1142.8 ± 4.6	–
293.15 K, 54050 kPa	1144.6 ± 4.6	–
293.15 K, 59060 kPa	1146.4 ± 4.6	–
293.15 K, 63780 kPa	1148 ± 4.6	–
293.35 K, 240 kPa	–	46.83 ± 1.9 mPa·s [middle of 4 runs]
293.35 K, 1160 kPa	–	47.82 ± 1.9 mPa·s
293.35 K, 1200 kPa	–	47.73 ± 1.9 mPa·s
293.35 K, 1230 kPa	–	47.49 ± 1.9 mPa·s
293.35 K, 1240 kPa	–	47.46 ± 1.9 mPa·s and 47.21 ± 1.9 mPa·s and 47.42 ± 1.9 mPa·s
293.35 K, 2170 kPa	–	48.09 ± 2 mPa·s
293.35 K, 2200 kPa	–	47.9 ± 1.9 mPa·s
293.35 K, 2220 kPa	–	47.44 ± 1.9 mPa·s
293.35 K, 2270 kPa	–	47.58 ± 1.9 mPa·s
293.35 K, 5010 kPa	–	49.43 ± 2 mPa·s
293.35 K, 5030 kPa	–	49.23 ± 2 mPa·s
293.35 K, 5040 kPa	–	49.42 ± 2 mPa·s
293.35 K, 10520 kPa	–	51.72 ± 2.1 mPa·s
293.35 K, 10530 kPa	–	51.62 ± 2.1 mPa·s
293.35 K, 10540 kPa	–	51.26 ± 2.1 mPa·s
293.35 K, 10620 kPa	–	51.34 ± 2.1 mPa·s
293.35 K, 10630 kPa	–	51.5 ± 2.1 mPa·s
293.35 K, 20180 kPa	–	56.36 ± 2.3 mPa·s
293.35 K, 20210 kPa	–	56.39 ± 2.3 mPa·s and 56.29 ± 2.3 mPa·s and 56.71 ± 2.3 mPa·s
293.35 K, 29650 kPa	–	61.22 ± 2.5 mPa·s
293.35 K, 29660 kPa	–	61.45 ± 2.5 mPa·s
293.35 K, 62400 kPa	–	81.01 ± 4.3 mPa·s
293.35 K, 62810 kPa	–	81.71 ± 4.3 mPa·s
293.35 K, 63230 kPa	–	82.04 ± 4.3 mPa·s
303 K, 190 kPa	–	28.88 ± 1.2 mPa·s [middle of 5 runs]
303 K, 330 kPa	–	28.5 ± 1.3 mPa·s and 29.08 ± 1.3 mPa·s
303 K, 340 kPa	–	29.02 ± 1.3 mPa·s
303 K, 1210 kPa	–	29.06 ± 1.2 mPa·s
303 K, 1220 kPa	–	29.35 ± 1.2 mPa·s and 29.62 ± 1.2 mPa·s
303 K, 2000 kPa	–	29.4 ± 1.2 mPa·s
303 K, 2020 kPa	–	29.29 ± 1.2 mPa·s
303 K, 2030 kPa	–	29.32 ± 1.2 mPa·s
303 K, 2100 kPa	–	29.31 ± 1.2 mPa·s
303 K, 2150 kPa	–	29.15 ± 1.2 mPa·s
303 K, 5250 kPa	–	30.07 ± 1.2 mPa·s
303 K, 5270 kPa	–	30.07 ± 1.2 mPa·s
303 K, 5280 kPa	–	30.31 ± 1.2 mPa·s
303 K, 10160 kPa	–	31.63 ± 1.3 mPa·s
303 K, 10170 kPa	–	31.41 ± 1.3 mPa·s
303 K, 10190 kPa	–	31.65 ± 1.3 mPa·s
303 K, 10210 kPa	–	31.52 ± 1.3 mPa·s
303 K, 10220 kPa	–	31.49 ± 1.3 mPa·s and 31.52 ± 1.3 mPa·s
303 K, 20290 kPa	–	34.2 ± 1.4 mPa·s
303 K, 20300 kPa	–	34.25 ± 1.4 mPa·s
303 K, 20320 kPa	–	34.32 ± 1.4 mPa·s
303 K, 20330 kPa	–	34.25 ± 1.4 mPa·s and 34.3 ± 1.4 mPa·s
303 K, 30260 kPa	–	37.03 ± 1.5 mPa·s and 37.15 ± 1.5 mPa·s and 37.36 ± 1.5 mPa·s
303 K, 30270 kPa	–	37 ± 1.5 mPa·s
303 K, 50510 kPa	–	43.39 ± 1.8 mPa·s
303 K, 50590 kPa	–	43.57 ± 1.8 mPa·s
303 K, 50660 kPa	–	43.63 ± 1.8 mPa·s
303 K, 64010 kPa	–	47.91 ± 2.1 mPa·s
